Laboratory results taken from patent US8871741B2, “Inhibition of TNF-α induced activation of NFKB by pentosan polysulfate” (Icahn School of Medicine at Mount Sinai, priority 2010, dated 2014).
Entries after “also recorded” stand apart in the source; their conditions may differ.

Legend:
[1] = system: Watanabe heritable hypercholesterolemic rabbits (WHHL); assay: Progression of established atherosclerosis in WHHL rabbits, morphologic analysis of aorta; assay type: in vivo, rabbit
Protocol: The degree of aortic atherosclerosis was evaluated by measuring the percent lesion area on the surface of the whole intimal (surface area of lesion/surface area of the whole intima) in the region between the aortic arch and the emergence of the renal arteries. Moreover, serial cross-sectional tissue samples (≈3 mm in length) taken from the aortic arch to the […] were post-fixed in paraformaldehyde (4% wt/vol.) and processed for histological analysis. The specimens were then embedded in paraffin, and 4-μm-thick sections were stained with hematoxylin and eosin (H&E). The ratio of intima to media (I/M ratio) was measured by computer-aided morphometric analysis in three consecutive cross-sectional sections of the aortic arch and the abdominal aorta, near the origin of the renal arteries, as described (Shindo J, et al., Circulation 1999; 99: 2150-2156). To avoid errors due to the heterogeneity of atherosclerotic lesions, the cross sections containing the thickest atherosclerotic lesions were selected individually from the aortic arch and used for the analysis of the cross-sectional areas of atherosclerotic lesions (Shindo J, et al., Circulation 1999; 99: 2150-2156). Percentage of the area occupied by macrophages and collagen were measured by computer-aided morphometric analysis on aortic cross sections stained immunohistochemically with RAM-11 antibody (DAKO Corp.) or Sirius red, respectively.

[2] = system: 22 month-old diabetic C57B6 mice; assay: Diabetic nephropathy in aged streptozotocin-diabetic C57B6 mice (albuminuria, renal histology, morphometry, serum chemistry); assay type: in vivo, mouse
Protocol: 4 and 16-17 month-old female C57B6 mice were obtained from National Institute on Aging and were injected with streptozotocin to induce diabetes. Mice were given 50 μg/g of streptozotocin in every three days, for a total of 5-8 injections. A total of 250-400 μg/g of streptozotocin was sufficient in most of mice to induce stable hyperglycemia (≧250 mg/dL). The streptozotocin dose required to establish stable diabetes was similar between […] and 4 month-old mice. There was less than 10% of mortality in both age groups of diabetic mice with this streptozotocin protocol. Dead mice were excluded from further study. Mice with stable diabetes at 5 or 18 months of age were selected for randomization. Female C57B6 mice were chosen as the onset and nature of renal lesions in aging was documented by the inventors herein These mice have irregular, lengthened estrous cycles around 10 to 14 months of age and the cycles usually cease at 18 months of age. […] 18 month-old diabetic mice were randomly divided into PPS treated (n=10, PPS 25 mg/kg/day in drinking water) and control (n=11) groups. No PPS treatment was given to 5 month-old diabetic mice. Both age groups of diabetic mice were followed for 4 months without insulin treatment. Body weight and blood glucose levels were monitored weekly. Urine albumin excretion was measured bi-weekly using an ELISA kit (Bethyl Laboratory Inc, Houston, Tex., USA), as previously described (Zheng F, et al. Am J Pathol 2003, 162:1339-1348). Urine creatinine levels were measured in the same samples and the urine albumin excretion rate was expressed as the ratio of albumin to creatinine Blood urea nitrogen (BUN) levels and serum creatinine levels were examined at sacrifice. High-performance liquid chromatography (HPLC) was applied for determining serum creatinine levels using the method described by Yuen et al. (Am J Physiol Renal Physiol 2004, 286:F1116-1119).
Mice were sacrificed 4 months after stable hyperglycemia was established. Kidneys were perfused with a saline solution and subsequently one kidney was perfusion-fixed in situ with 4% paraformaldehyde for histologic studies. The tissues were embedded in glycol methacrylate or low melting paraffin, and stained with periodic acid Schiff (PAS) and Masson's Trichrome. Tissues were also postfixed for 1 hour in 1.0% osmium tetroxide, prestained in 1.25% uranyl acetate for 1 hour, dehydrated through a series of graded alcohol solutions, and embedded in EPON epoxy resin for electron microscopy. The glomerular volume and mesangial area were determined by examining plastic embedded sections using a digitizing tablet and video camera. The relative mesangial area was expressed as mesangial/glomerular surface area. Glomerular cell number was determined by counting the nuclear number in at least 30 glomeruli of each section. The glomerular basement membrane thickness was measured by the orthogonal intercept method on electron microscopic images. To determine the number of glomerular fenestrae, the length of was fenestrated or unfenestrated glomerular capillary endothelial cytoplasm was measured. Fenestrated endothelial cell cytoplasm was generally thin whereas the thickness of the unfenestrated endothelial cell cytoplasm was twice or more increased. Tubulointerstitial lesions were scored from 0 to 4 (0, no changes; 1+, changes affecting <25% of the sample; 2+, changes affecting 25 to 50% of the sample; 3+, changes affecting 50 to 75% of the sample; 4+, changes affecting 75 to 100% of the sample) based on tubular atrophy, increase in the thickness of basement membranes and interstitial area, and clusters of inflammatory cells.

TNFα mRNA = assay: PCR of TNFα mRNA in kidney; assay type: in vivo, mouse; conditions: PPS treated 22 month-old diabetic mice, up to 40 PCR cycles
Protocol: mRNA levels were corrected by the levels of β-actin or GAPDH mRNA. The expression of TNFα mRNA in kidney was determined by both a real time and a regular PCR using the primer of forward, 5′-[…]-3′ (SEQ ID NO: 17), reverse, 5′-[…]-3′ (SEQ ID NO: 18). GAPDH and β-actin mRNA levels were measured in the same sample.

podocytes = assay: Albumin permeability of podocyte monolayers (FITC-labeled BSA flux); assay type: cell-based; conditions: podocyte monolayer
Protocol: 1×10^5 podocytes were seeded onto collagen-coated transwell filters ([…] pore-size, Corning, N.Y., N.Y.) placed in the top chamber of each well of a 24-well plate. After cells reached confluence, some wells of cells were treated with TNFα (20 ng/ml), PPS (400 μg/ml), or PPS plus TNFα in 2% FBS medium for 8 hours. Then the medium from both the top and bottom chamber was completely removed, cells were washed twice with PBS and the top chamber was refilled with 0.2 ml 2% FBS medium supplemented with 0.5 mg/ml FITC-labeled BSA (Sigma Aldrich, St Louis, […].), while the bottom chamber was refilled with 0.6 ml 2% FBS medium supplemented with 0.5 mg/ml unlabeled BSA. At different time points, 100 μl aliquots were collected from the bottom chamber and fluorescence was measured by a fluorescence spectrophotometer (485 nm excitation, 535 nm emission). The concentration of FITC-BSA passing through the monolayer was determined by reference to a set of standard dilutions of FITC-BSA. The value of albumin flux through untreated monolayer was arbitrarily defined as 100%.

[3] = 22 month-old diabetic mice treated with PPS, n = 10, at sacrifice, mean±SD
[4] = 22 month-old diabetic mice, PPS 25 mg/kg/day in drinking water, 4 months
[5] = morphometric analysis, PPS treated versus untreated 22 month-old diabetic mice

## pentosan polysulfate [PPS]
[1]; HC-diet 45 days, then oral PPS for an additional 30 days
  intima/media ratio (I/M) compared to WHHL rabbits fed a HC-diet for 45 days: not significantly different
[1]; RAM-11 staining, aortic cross sections, 75 days HC-diet, PPS last 30 days, mean±SEM
  area containing macrophages, relative to the total plaque area: 35.56±1.51%
[1]; WHHL rabbits, HC-diet 75 days, PPS 30 mg/kg BW daily in drinking water for the last 30 days
  percent surface area of the intima occupied by lesions, reduction compared to water-treated controls: approximately one-third
[1]; aortic arch and abdominal aorta, 75 days HC-diet, oral PPS for the last 30 days
  intima/media ratio (I/M) compared to water-treated controls: significantly lower
[1]; aortic arch sections, 75 days HC-diet, PPS last 30 days, mean±SEM
  Sirius red staining (collagen) in plaques: 47.43±2.93%
[2]; [3]
  BUN: 21.3 ± 5.6 mg/dL
  Scr (serum creatinine): 0.118 ± 0.02 mg/dL
[2]; [4]
  reduction in tubulointerstitial lesions: ~80%
  reduction of the increase in the albumin excretion rate: about 50%
[2]; morphometric analysis, PPS treated 22 month-old diabetic mice
  reduction of glomerular endothelial fenestrations: largely prevented
[2]; [5]
  glomerular basement membrane width: decreased
  mesangial area: decreased
TNFα mRNA
  TNFα mRNA expression in the kidneys: completely prevented the upregulation; also recorded: absent
podocytes; PPS 400 μg/ml plus TNFα 20 ng/ml, FIG. 18 legend
  inhibition of the flux of FITC-labeled BSA: 34%
podocytes; PPS 400 μg/ml, TNFα 20 ng/ml
  reduction of the TNFα-induced increase in FITC-labeled albumin passage: ~60%
